Test results reported in patent publication US20260374739A1, “SMALL MOLECULAR WEIGHT CHEMICAL COMPOUND TO ANTAGONIZE EPH-EPHRIN TETRAMERIZATION AND INHIBIT BIDIRECTIONAL SIGNALING” (THE BOARD OF REGENTS OF THE UNIVERSITY OF TEXAS SYSTEM, priority 2022, published 2026).
Several values for one entry are separate records, joined by “and”; a condition that tells them apart may be missing. Identical values can stand only once. Like-named read-outs stand apart in the source and are kept apart here.

Experiments:
EphA3-EphrinA1 = molecular target: T1, EphA3-EphrinA1 (Homo sapiens, UniProt P29320); experiment: Octet, immobilized human EphA3 binding to human EphrinA1; conditions: for IC50: immobilized human EphA3, 50 nM soluble human EphrinA1
T1 sequence (P29320 21-541 limits assumed): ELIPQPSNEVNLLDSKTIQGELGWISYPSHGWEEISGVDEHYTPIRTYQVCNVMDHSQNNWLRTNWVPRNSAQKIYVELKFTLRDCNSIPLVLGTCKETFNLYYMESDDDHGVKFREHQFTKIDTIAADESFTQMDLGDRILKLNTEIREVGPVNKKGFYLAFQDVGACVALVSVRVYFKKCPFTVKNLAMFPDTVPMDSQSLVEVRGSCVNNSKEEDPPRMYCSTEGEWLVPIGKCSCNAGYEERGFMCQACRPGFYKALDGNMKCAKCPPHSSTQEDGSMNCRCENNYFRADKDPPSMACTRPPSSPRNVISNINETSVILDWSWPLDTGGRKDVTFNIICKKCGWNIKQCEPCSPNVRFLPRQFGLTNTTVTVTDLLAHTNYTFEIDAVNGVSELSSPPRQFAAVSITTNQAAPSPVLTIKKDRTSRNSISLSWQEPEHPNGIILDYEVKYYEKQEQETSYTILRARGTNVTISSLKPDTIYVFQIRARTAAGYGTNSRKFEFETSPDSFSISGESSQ
Description: (§1) The Octet system was used to probe the interactions of epitope-tagged human A class proteins, focusing on immobilized EphA3 binding to two of its cognate ligands, EphrinA1 and EphrinA5, as well as EphB2 binding to EphrinA5 (FIG. 27). […] Focusing on the dimerization-driven EphA3-EA5 interaction first (green sensorgram trace), which mimics what is disclosed above for EphB4-EB2, the initial binding of soluble EphrinA5 to the immobilized EphA3 is very fast and strong with a long and steep 84° slope of response that then quickly bends around 35 sec into the association step to form a more gradual tetramerization accumulation slope. […] However, again like the EphB4-EB2 interaction, once placed into dissociation, a significant fraction of the bound EA5 protein melts quickly and the off phase continues downward with a slow gradual decline in bound protein. Although the dissociation was for only 500 sec, the continued downward slope of the response indicates most of the bound EA5 protein would eventually melt off of the immobilized EphA3 protein. This is referred to as a classic dimerization-driven interaction, fast and strong initial binding in the association step but with most of the bound protein coming off in the dissociation due to lack of formation of stable tetramers. EphA3 interacts with EphrinA1 with totally different kinetics/dynamics (orange sensorgram trace). Here, the initial high 84° dimerization slope phase is extremely brief (5 sec) with the binding quickly snapping into a linear tetramerization accumulation phase with a 25° slope, and that once placed into dissociation step almost no bound protein melts, just the small amount that would represent dimer interactions falling off in the first few seconds after being placed into dissociation. […] EphB2 interacting with EA5 is similar to the EphA3-EA1 interaction, in that the association step is characterized by a very brief (5 sec) high 84° slope phase that quickly bends into a more gradual tetramer accumulation phase (blue sensorgram trace). […] The strong initial off phase of the EphB2-EA5 complexes in the dissociation represents both the melting of weak dimers and of the relatively weaker affinity tetramers formed by the cross A/B class EphB2-EA5 molecules.
(§2) While there is no effect of A20 on the initial 5 sec fast EphA3-EA1 dimer phase, there is a very strong effect of compound on tetramer accumulation. It was estimated that >70% of the EphA3-EA1 binding interaction can be attributed to the tetramer which is effectively disrupted by compound, with very little binding activity attributed to the dimer and more accurately the dimerization:tetramerization ratio of this interaction is 10:90 not 30:70. […] Since this is a dimerization-driven type interaction (dimerization:tetramerization ratio of here is 72:28), the overall effect of compound on this interaction is muted.

EphB4-EphrinB2 = molecular target: T2, EphB4-EphrinB2 (Mus musculus, UniProt P54761); experiment: Octet RED384, immobilized mouse EphB4-Fc binding to mouse EB2-His
T2 construct: biosensor immobilized rodent EphB1-Fc and EphB4-Fc ectodomain proteins; mouse EB2-His residues 18-232; purchased R&D Systems (EphB-Fc); Sino Biologicals (EphrinB-His)
T2 sequence (P54761 16-539 limits assumed): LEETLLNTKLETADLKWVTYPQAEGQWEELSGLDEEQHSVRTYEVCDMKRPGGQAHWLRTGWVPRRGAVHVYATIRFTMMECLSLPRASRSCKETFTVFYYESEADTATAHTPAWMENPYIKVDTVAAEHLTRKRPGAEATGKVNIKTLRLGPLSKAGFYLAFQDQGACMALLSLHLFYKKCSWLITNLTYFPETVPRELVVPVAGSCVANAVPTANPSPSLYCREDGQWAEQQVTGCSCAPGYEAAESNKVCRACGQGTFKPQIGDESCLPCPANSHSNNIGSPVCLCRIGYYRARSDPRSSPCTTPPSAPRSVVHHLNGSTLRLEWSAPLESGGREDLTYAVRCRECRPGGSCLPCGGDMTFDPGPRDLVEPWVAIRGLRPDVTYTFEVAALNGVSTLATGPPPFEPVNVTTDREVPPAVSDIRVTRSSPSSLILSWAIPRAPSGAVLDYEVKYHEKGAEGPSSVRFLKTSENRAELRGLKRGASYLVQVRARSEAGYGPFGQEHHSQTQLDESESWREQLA
Description: […] Association time was for 400 sec and dissociation time was for 500 sec. Binding assays were conducted in PBS containing 0.05% Tween-20 and 1% DMSO.

EphA3-EphrinA5 = molecular target: T3, EphA3-EphrinA5 (Homo sapiens, UniProt P29320); experiment: Octet, immobilized human EphA3 binding to human EphrinA5
T3 sequence (P29320 21-541 limits assumed): T1 sequence (P29320 21-541 limits assumed)
Description: as §1, §2

[1] = Absolute Association IC50, Human EphA3-EphrinA1, association, absolute
[2] = Human EphA3-EphrinA1, association, relative, read-out: Relative Association IC50
[3] = Human EphA3-EphrinA1, dissociation, relative, read-out: Relative Dissociation IC50
[4] = mEphB4-mEphrinB2, immobilized mouse EphB4, 50 nM soluble mouse EphrinB2, association, absolute, read-out: Absolute Association IC50
[5] = mEphB4-mEphrinB2, immobilized mouse EphB4, 50 nM soluble mouse EphrinB2, association, relative, read-out: Relative Association IC50
[6] = mEphB4-mEphrinB2, immobilized mouse EphB4, 50 nM soluble mouse EphrinB2, dissociation, absolute, read-out: Absolute Dissociation IC50
[7] = mEphB4-mEphrinB2, immobilized mouse EphB4, 50 nM soluble mouse EphrinB2, dissociation, relative, read-out: Relative Dissociation IC50
[8] = Human EphA3-EphrinA5, immobilized human EphA3, 50 nM soluble human EphrinA5, association, absolute, read-out: Absolute Association IC50
[9] = Human EphA3-EphrinA5, immobilized human EphA3, 50 nM soluble human EphrinA5, association, relative, read-out: Relative Association IC50
[10] = Human EphA3-EphrinA5, immobilized human EphA3, 50 nM soluble human EphrinA5, dissociation, relative, read-out: Relative Dissociation IC50
[11] = Human EphA3-EphrinA1, association, absolute, read-out: Absolute Association IC50
[12] = Human EphA3-EphrinA1, dissociation, absolute, read-out: Absolute Dissociation IC50
[13] = Relative Association IC50, Human EphA3-EphrinA1, association, relative
[14] = Relative Dissociation IC50, Human EphA3-EphrinA1, dissociation, relative
[15] = Human EphA3-EphrinA5, immobilized human EphA3, 50 nM soluble human EphrinA5, dissociation, absolute, read-out: Absolute Dissociation IC50

Oc1c(Br)cc(CN2CCOCC2)c2cccnc12 [Compound 5, 7-bromo-5-(morpholinomethyl)quinolin-8-ol]
inhibition at 1 µM (EphA3-EphrinA1; 1 μM, read-out: tetramers lost): ~50%
loss of tetramer formation (EphA3-EphrinA1; 100 μM): near complete loss of tetramer formation
IC50 (EphB4-EphrinB2; EphB4-EB2, read-out: area under the curve IC50): > 100 µM
loss of tetramer accumulation (EphA3-EphrinA5; 1 μM): striking maximized loss of tetramer accumulation

O=[N+]([O-])c1cc(CN2CCOCC2)c2cccnc2c1O [Compound 10, 4-((8-hydroxy-7-nitroquinolin-1-ium-5-yl)methyl)morpholin-4-ium chloride]
IC50 (EphA3-EphrinA1; [1]): 14 µM
IC50 (EphA3-EphrinA1; Absolute Dissociation IC50, Human EphA3-EphrinA1, dissociation, absolute): 6.3 µM
IC50 (EphA3-EphrinA1; [2]): 8.3 µM
IC50 (EphA3-EphrinA1; [3]): 4.23 µM
IC50 (EphB4-EphrinB2; [4]): 100 µM
IC50 (EphB4-EphrinB2; [5]): 6.38 µM
IC50 (EphB4-EphrinB2; [6]): 2.63 µM
IC50 (EphB4-EphrinB2; [7]): 2.38 µM
IC50 (EphA3-EphrinA5): 4.48 µM
IC50 (EphA3-EphrinA5; [8]): 100 µM
IC50 (EphA3-EphrinA5; [9]): 2.49 µM
IC50 (EphA3-EphrinA5; [10]): 0.79 µM

O=S1(=O)CCN(Cc2ccc(O)c3ncccc23)CC1 [Compound 15, 4-((8-hydroxyquinolin-1-ium-5-yl)methyl)thiomorpholin-4-ium 1,1-dioxide chloride]
IC50 (EphA3-EphrinA1; [11]): 100 µM
IC50 (EphA3-EphrinA1; [12]): 29.3 µM
IC50 (EphA3-EphrinA1; [13]): 12.3 µM
IC50 (EphA3-EphrinA1; [14]): 6 µM
IC50 (EphB4-EphrinB2; [4]): 100 µM
IC50 (EphB4-EphrinB2; [5]): > 10 µM
IC50 (EphB4-EphrinB2; [6]): 13.2 µM
IC50 (EphB4-EphrinB2; [7]): 0.63 µM
IC50 (EphA3-EphrinA5): 2.1 µM
IC50 (EphA3-EphrinA5; [8]): 100 µM
IC50 (EphA3-EphrinA5; [9]): > 1 µM
IC50 (EphA3-EphrinA5; [10]): < 1 µM

Oc1c(I)cc(CN2CCOCC2)c2cccnc12 [Compound 8, 4-((8-hydroxy-7-iodoquinolin-1-ium-5-yl)methyl)morpholin-4-ium chloride]
IC50 (EphA3-EphrinA1; [11]): 0.45 µM and 1.45 µM
IC50 (EphA3-EphrinA1; [2]): 0.19 µM and 0.71 µM
IC50 (EphA3-EphrinA1; [12]): 1.2 µM and 1.52 µM
IC50 (EphA3-EphrinA1; [3]): 0.46 µM and 1.14 µM
IC50 (EphB4-EphrinB2; [4]): > 1.6 µM and 100 µM
IC50 (EphB4-EphrinB2; [5]): 0.51 µM and 0.34 µM
IC50 (EphB4-EphrinB2; [6]): 0.65 µM and 0.68 µM
IC50 (EphB4-EphrinB2; [7]): 0.53 µM
IC50 (EphA3-EphrinA5): 0.36 µM
IC50 (EphA3-EphrinA5; [8]): > 1.6 µM
IC50 (EphA3-EphrinA5; [9]): 0.5 µM
IC50 (EphA3-EphrinA5; [15]): 0.48 µM

Oc1ccc(CN2CCOCC2)c2cccnc12 [Compound 1, 5-(morpholinomethyl)quinolin-8-ol]
IC50 (EphA3-EphrinA1; [11]): 8.24 µM
IC50 (EphA3-EphrinA1; [2]): 6.29 µM
IC50 (EphA3-EphrinA1; [12]): 6.73 µM
IC50 (EphA3-EphrinA1; [3]): 2.39 µM
IC50 (EphB4-EphrinB2; [4]): 100 µM
IC50 (EphB4-EphrinB2; [5]): 100 µM
IC50 (EphB4-EphrinB2; [6]): 100 µM
IC50 (EphA3-EphrinA5): 3.22 µM
IC50 (EphA3-EphrinA5; [8]): 100 µM
IC50 (EphA3-EphrinA5; [9]): < 1 µM
IC50 (EphA3-EphrinA5; [10]): 1.24 µM

Oc1c(Br)cc(CN2CCOCC2)c2cccnc12 [Compound 6, 4-((7-bromo-8-hydroxyquinolin-1-ium-5-yl)methyl)morpholin-4-ium chloride]
IC50 (EphA3-EphrinA1; [12]): 1.99 µM
IC50 (EphA3-EphrinA1; [13]): 7.24 µM
IC50 (EphB4-EphrinB2; [4]): 100 µM
IC50 (EphB4-EphrinB2; [5]): 0.22 µM
IC50 (EphB4-EphrinB2; [6]): 0.41 µM
IC50 (EphB4-EphrinB2; [7]): 0.22 µM
IC50 (EphA3-EphrinA5): 0.37 µM
IC50 (EphA3-EphrinA5; [8]): 100 µM
IC50 (EphA3-EphrinA5; [9]): 0.52 µM
IC50 (EphA3-EphrinA5; [15]): 0.52 µM

Oc1ccc(CN2CCN(Cc3ccc(C(F)(F)F)cc3)CC2)c2cccnc12 [Compound 48, 5-((4-(4-(trifluoromethyl)benzyl)piperazin-1-yl)methyl)quinolin-8-ol]
IC50 (EphA3-EphrinA1; [11]): 100 µM
IC50 (EphA3-EphrinA1; [2]): 100 µM
IC50 (EphA3-EphrinA1; [12]): 9.4 µM
IC50 (EphA3-EphrinA1; [14]): 5.3 µM
IC50 (EphB4-EphrinB2; [5]): 8.24 µM
IC50 (EphB4-EphrinB2; [7]): 1.89 µM
IC50 (EphA3-EphrinA5): 4.33 µM
IC50 (EphA3-EphrinA5; [8]): 100 µM
IC50 (EphA3-EphrinA5; [9]): 3.25 µM
IC50 (EphA3-EphrinA5; [15]): 6.24 µM

Oc1c(Cl)cc(CN2CCOCC2)c2cccnc12 [Compound 4, 4-((7-chloro-8-hydroxyquinolin-1-ium-5-yl)methyl)morpholin-4-ium chloride]
IC50 (EphA3-EphrinA1; [1]): 1.84 µM
IC50 (EphA3-EphrinA1; [12]): 0.9 µM
IC50 (EphA3-EphrinA1; [3]): 0.9 µM
IC50 (EphA3-EphrinA1; [13]): 0.89 µM
IC50 (EphB4-EphrinB2; [4]): > 10 µM
IC50 (EphB4-EphrinB2; [5]): 3.19 µM
IC50 (EphB4-EphrinB2; [6]): 0.84 µM
IC50 (EphB4-EphrinB2; [7]): 0.53 µM
IC50 (EphA3-EphrinA5): 0.54 µM
IC50 (EphA3-EphrinA5; [8]): 12.9 µM
IC50 (EphA3-EphrinA5; [9]): 1 µM
IC50 (EphA3-EphrinA5; [15]): 0.62 µM
